Source: US20100297256A1, “METHODS AND COMPOSITIONS FOR INHIBITING INTEGRINS USING TELLURIUM-CONTAINING COMPOUNDS” (priority 2007, published 2010)

Experiments:
HUVEC endothelial cells = assay: Tube formation assay, HUVEC; assay type: cell-based; conditions: HUVEC on Matrigel, 3 hours
Description: (§1) Plates (48 wells) were coated with 150 μl of Matrigel and incubated at 37° C. for 1 hour to promote gelling. Svec4-10 or HUVEC cells (40,000 cells) in 0.5 ml of serum-free DMEM with varying concentration of AS101 or SAS were added to each well. For positive control, ECGS was added at a concentration of 50 μg/ml. All samples were performed in sextuplicate. After 3 hours incubation, the plates were fixed with methanol and stained with crystal violet. Randomly chosen fields were photographed and density of tube formation was analyzed by imageJ.

FAK = assay: Western blot analysis of FAK phosphorylation; assay type: cell-based, murine
Description: Cell lysates (20 μg) were diluted with an equal volume of 2×SDS (sodium dodecyl sulfate) sample buffer and separated according to size by SDS-PAGE (SDS-polyacrylamide gel electrophoresis). Proteins were transferred to a polyvinylidene difluoride membrane via electroelution by a transfer system (Bio-Rad), blocked for 1 hour by blocking buffer (5% skim milk in PBS with 0.05% Tween 20) and incubated for 2 hours in room temperature or for overnight in 4° C. with primary antibodies diluted in blocking buffer. Membranes were washed several times in PBS with 0.05 Tween (PBS-T) and incubated for 1 hour with horseradish peroxidase-conjugated anti-mouse or anti-rabbit antibodies (diluted 1:10,000). Proteins were detected by ECL Western Blotting Detection Reagents according to the instructions of the manufacturer (PIERCE).

BV-2 cells = assay: Cell attachment assay, BV-2; assay type: cell-based, murine
[1] = test system: SVEC4-10 endothelial cells; assay: Tube formation assay, SVEC4-10; assay type: cell-based, murine; conditions: SVEC4-10 on Matrigel, 3 hours
Description: as §1

αVβ3 integrin = biological target: T1, αVβ3 integrin (Homo sapiens, UniProt P05106+P06756); assay: ELISA-integrin; assay type: binding; conditions: 0.5-10 μg/ml
T1 construct: purchased Chemicon
T1 sequence (P06756 31-889 limits assumed): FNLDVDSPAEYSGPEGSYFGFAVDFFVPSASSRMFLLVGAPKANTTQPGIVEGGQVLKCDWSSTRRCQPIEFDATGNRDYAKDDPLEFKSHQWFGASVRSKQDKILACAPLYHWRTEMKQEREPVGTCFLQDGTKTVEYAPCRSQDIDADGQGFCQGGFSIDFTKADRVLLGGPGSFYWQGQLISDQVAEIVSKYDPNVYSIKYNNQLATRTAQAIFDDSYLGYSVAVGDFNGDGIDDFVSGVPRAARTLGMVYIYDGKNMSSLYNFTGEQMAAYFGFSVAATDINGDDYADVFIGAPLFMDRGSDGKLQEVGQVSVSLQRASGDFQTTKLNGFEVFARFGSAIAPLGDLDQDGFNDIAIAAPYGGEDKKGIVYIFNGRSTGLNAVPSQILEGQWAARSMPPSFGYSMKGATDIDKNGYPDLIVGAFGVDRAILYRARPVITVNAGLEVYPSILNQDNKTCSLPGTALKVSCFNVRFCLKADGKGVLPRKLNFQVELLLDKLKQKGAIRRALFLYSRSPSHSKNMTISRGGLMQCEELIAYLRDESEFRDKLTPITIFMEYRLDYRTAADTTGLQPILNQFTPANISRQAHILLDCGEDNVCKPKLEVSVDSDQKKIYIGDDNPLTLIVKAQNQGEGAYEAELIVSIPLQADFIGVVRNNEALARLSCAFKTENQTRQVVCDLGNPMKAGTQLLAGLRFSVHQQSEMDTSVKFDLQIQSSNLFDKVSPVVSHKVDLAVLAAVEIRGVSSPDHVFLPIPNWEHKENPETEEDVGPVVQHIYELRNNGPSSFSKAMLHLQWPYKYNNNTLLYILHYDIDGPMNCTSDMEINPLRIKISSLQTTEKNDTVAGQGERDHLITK
T1 sequence (P06756 891-1048 limits assumed): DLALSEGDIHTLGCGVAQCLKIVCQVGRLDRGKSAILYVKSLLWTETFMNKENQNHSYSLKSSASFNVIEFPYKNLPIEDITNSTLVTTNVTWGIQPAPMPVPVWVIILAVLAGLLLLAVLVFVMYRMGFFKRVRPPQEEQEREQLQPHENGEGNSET
T1 sequence (P05106 27-788): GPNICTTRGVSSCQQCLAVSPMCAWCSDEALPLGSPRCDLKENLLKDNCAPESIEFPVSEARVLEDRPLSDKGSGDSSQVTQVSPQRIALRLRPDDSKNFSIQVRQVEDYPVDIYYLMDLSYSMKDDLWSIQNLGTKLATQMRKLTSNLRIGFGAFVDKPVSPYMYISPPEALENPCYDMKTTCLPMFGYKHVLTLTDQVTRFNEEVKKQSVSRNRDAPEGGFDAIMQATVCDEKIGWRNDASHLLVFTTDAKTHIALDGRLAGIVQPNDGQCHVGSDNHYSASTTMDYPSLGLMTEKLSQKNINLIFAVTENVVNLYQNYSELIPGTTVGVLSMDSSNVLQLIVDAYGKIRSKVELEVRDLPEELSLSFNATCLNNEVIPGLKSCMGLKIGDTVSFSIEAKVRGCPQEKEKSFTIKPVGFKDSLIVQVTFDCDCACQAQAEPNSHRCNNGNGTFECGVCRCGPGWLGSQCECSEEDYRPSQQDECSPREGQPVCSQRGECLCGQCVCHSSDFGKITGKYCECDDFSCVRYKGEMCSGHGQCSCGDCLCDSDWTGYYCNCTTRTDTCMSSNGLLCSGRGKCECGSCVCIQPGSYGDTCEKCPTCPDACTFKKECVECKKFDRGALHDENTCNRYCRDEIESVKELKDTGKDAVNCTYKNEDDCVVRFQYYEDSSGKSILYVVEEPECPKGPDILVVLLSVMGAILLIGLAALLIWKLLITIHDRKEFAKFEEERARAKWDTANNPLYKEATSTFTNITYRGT
Description: Plates coated with C16 or fibronectin were blocked with 10% BSA for 1 hour and washed with PBS. 20 ng/well of integrin with or without AS101/SAS was applied on fibronectin or 2 ng C16 coated well and incubated for 1.5 hours at 37° C. The wells were thereafter washed with PBS-T and mouse anti-integrin was added thereto for 1 hour at 37° C. Cells were then washed again and anti-mouse-horseradish peroxidase was added for another 1 hour at 37° C. Finally, cells were washed, TBM-substrate was added for color development, and absorption was read at 595 nm. Data presented as ±SE, bar *=p<0.005, evaluated by T-test.

integrin β subunits = assay: Multiple anti-integrin antibody binding assay, β subunits; assay type: cell-based; conditions: SVEC cells
Description: The specificity of tellurium-containing compounds to integrins was tested by examining the effect of AS101 and SAS on the attachment of SVEC cells to specific anti-integrin antibodies. Commercially available kits (R&D Biosystems) with anti-integrin coated wells were used, and attachment was determined according to the manufacturer's instructions.

[2] = test system: chick chorioallantoic membrane; assay: Chick chorioallantoic membrane (CAM) angiogenesis assay; assay type: in vivo; conditions: 5 μg/ml combined with ECGS 50 μg/ml, 3 days
Description: Collagen I solution was prepared by mixing 1.8 ml of collagen I, 4.14 μl of […] NaOH and 0.2 ml of 10×PBS/200 mM HEPES (pH 7.4). 10 μl of a mixture containing 0.1 ml of the collagen I solution and 0.2 ml of PBS either with or without AS101 (5 μg/ml) or SAS (5 μg/ml) was loaded onto a quarter piece of a Thermonox disc and gelled by warming to room temperature for 15 minutes. The disc was then applied to the chorioallantoic membrane of a 10-days-old embryo, following preparation of the eggs by removing 2 ml of albumin from the 3-days-old embryo and by “opening a window” to the 7-day-old embryo. ECGS (50 μg/ml) in PBS was used to induce angiogenesis and 5 μg/ml of AS101 or SAS were mixed with ECGS. After 3-days incubation, the negative or positive response was assessed under a binocular. Positive response, namely the appearance of a typical spokewheel pattern of new blood vessels around the loaded samples, was determined by a blinded observer. Assays for each test sample were carried out three times, and each experiment contains 10 to 12 eggs/data point.

B16F10 cells = assay: Cell attachment assay, B16F10; assay type: cell-based, murine; conditions: B16F10, data not shown, compared with SVEC4-10
Description: The cell attachment assays were performed in sextuplicate in 96-well plates. The 1 μg of C16 or AG73 peptide in 60 μl double-distilled water was added to each well, and this volume was allowed to air dry overnight in a biosafety hood at room temperature (or fibronectin 20 ng/80 μl for 1 hour at 37° C.). Thereafter, nonspecific binding sites of the tissue culture plastic were blocked by adding 200 μl of 1% bovine serum albumin (BSA) in PBS for 1 hour at 37° C. LAN-1, B16F10 and SVEC4-10 cells were harvested by agitation, washed three times in serum-free DMEM and resuspended in 1% BSA-DMEM. After 20 minutes incubation in 1% BSA in a tube, cells were washed and resuspended in 0.1% BSA. The cells were counted using a hemocytometer and brought to a final cell count of 1×10^6/ml in the 0.1% BSA medium. […]
Next, 150 μl of the treated cell suspension was added to each well (20,000 cells/well), which had been coated with peptides, and incubated for 50 minutes at 37° C. […] 100 μl aliquot of 10% SDS was thereafter added to each well for cell lysis and dye release and absorption was read with a TECAN spectrophotometer at 570 nm.
Attached cells were washed with PBS without Ca^+2/Mg^+2. […] Dye bound to the cell is released by SDS and the absorption by the dye is measured by colorimetry at 570 nm. The amount of stained cells is then considered to be proportional to the measured absorption by the dye

[3] = B16F10, 5 to 10 minutes incubation
[4] = LAN-1, 5 to 10 minutes incubation
[5] = SVEC4-10, 5 to 10 minutes incubation

Row | Compound | number of tubes formed (HUVEC endothelial cells) | ECGS-induced FAK phosphorylation at Y397 (FAK; [3]) | ECGS-induced FAK phosphorylation at Y397 (FAK; [4]) | ECGS-induced FAK phosphorylation at Y397 (FAK; [5]) | cell attachment to fibronectin (BV-2 cells) | number of tubes formed [1] | C16 peptide binding to αVβ3 integrin (αVβ3 integrin) | fibronectin binding to αVβ3 integrin (αVβ3 integrin) | cell attachment to antibodies against integrin β subunits (integrin β subunits) | angiogenic capability of ECGS [2] | cell attachment to C16 and AG73 peptides (B16F10 cells)
1 | Cl[TeH]1(Cl)(Cl)OCCO1 [AS101, ammonium trichloro(dioxyethylene-O,O′)tellurate] | reduced the number of tubes formed | inhibition of ECGS-induced FAK phosphorylation at Y397 | inhibition of ECGS-induced FAK phosphorylation at Y397 | inhibition of ECGS-induced FAK phosphorylation at Y397 | inhibited cell attachment to fibronectin | reduced the number of tubes formed | block | block | considerable inhibition | reduced the angiogenic capability of ECGS to baseline levels | similar
2 | O=C1O[Te]23OC(=O)C(O2)C2O[Te]4(OC(=O)C(O4)C1O3)OC2=O [SAS, [TeO4(COCH)2]2] | reduced the number of tubes formed | inhibition of ECGS-induced FAK phosphorylation at Y397 | inhibition of ECGS-induced FAK phosphorylation at Y397 | inhibition of ECGS-induced FAK phosphorylation at Y397 | inhibited cell attachment to fibronectin | reduced the number of tubes formed | block | block | considerable inhibition | reduced the angiogenic capability of ECGS to baseline levels | similar
